Test results: patent publication US20190307731A1, “ARYL HYDROCARBON RECEPTOR MODULATOR” (Ariagen, Inc., priority 2016, published 2019)
Like-named read-outs stand apart in the source and are kept apart here.

Biological target: T1, native (Human Hepatoma Huh-7) AhR receptor (Homo sapiens, UniProt P35869)
T1 construct: expression of native (Human Hepatoma Huh-7) AhR receptor reporter gene cells; endogenous in cells; host or cells: Human hepatoma Huh-7 cells carrying a firefly luciferase reporter vector
T1 sequence (P35869 11-848): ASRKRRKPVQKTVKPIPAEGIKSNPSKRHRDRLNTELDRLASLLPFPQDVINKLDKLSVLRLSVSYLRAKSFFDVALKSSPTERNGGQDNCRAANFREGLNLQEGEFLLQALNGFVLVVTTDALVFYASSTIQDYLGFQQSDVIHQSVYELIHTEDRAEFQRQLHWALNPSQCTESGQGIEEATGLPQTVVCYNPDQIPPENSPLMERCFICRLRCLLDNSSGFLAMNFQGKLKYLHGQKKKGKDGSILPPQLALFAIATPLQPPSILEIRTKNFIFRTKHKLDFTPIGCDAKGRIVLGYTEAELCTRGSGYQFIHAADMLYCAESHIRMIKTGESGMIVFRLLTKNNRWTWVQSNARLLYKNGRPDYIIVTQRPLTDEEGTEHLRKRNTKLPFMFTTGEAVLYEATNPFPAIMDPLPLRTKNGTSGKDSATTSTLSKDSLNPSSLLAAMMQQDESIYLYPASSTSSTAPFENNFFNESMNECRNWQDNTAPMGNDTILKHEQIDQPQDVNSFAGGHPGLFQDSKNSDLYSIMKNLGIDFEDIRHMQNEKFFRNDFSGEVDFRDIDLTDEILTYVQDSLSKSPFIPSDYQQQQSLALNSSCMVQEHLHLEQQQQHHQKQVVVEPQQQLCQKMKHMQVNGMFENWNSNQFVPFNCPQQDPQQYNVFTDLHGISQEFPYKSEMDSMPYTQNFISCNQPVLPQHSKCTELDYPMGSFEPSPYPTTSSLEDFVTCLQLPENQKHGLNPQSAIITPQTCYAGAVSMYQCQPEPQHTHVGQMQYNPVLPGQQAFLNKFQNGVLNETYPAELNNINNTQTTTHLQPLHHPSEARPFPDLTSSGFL
Assay: AhR agonism assay (luciferase reporter gene cells)
Type: cell-based
Procedure: Assay Materials (plasmids): expression of native (Human Hepatoma Huh-7) AhR receptor reporter gene cells, the reporter vector includes functional firefly luciferase gene linked to upstream receptor-specific genetic response elements (GRE).
The AhR agonism assay comprises the following three steps:
1. Cell implantation: a suspension of AhR receptor cells was prepared in cell recovery medium (CRM; FBS containing 10% activated carbon). Then, the prepared suspension (100 μl) was dispensed into wells of a white 96-well culture plate.
2. Right before the beginning of the experiment, Master Stocks were diluted to “2× concentration” treatment media with appropriate compound screening media (CSM: FBS containing 10% activated carbon). The test compounds were subjected to gradient dilution with CSM medium containing 0.2% DMSO, so that the final concentration of DMSO in each experimental well for each treatment group was 0.1%. […] The experimental plate was placed in an incubator at 37° C. for 24 h.
3. Fluorescence detection and analysis: after completion of the incubation, the treatment media were discarded and 100 μL/well of luciferase detection reagent was added. The Ave RLU (average relative fluorescence intensity) of each well and the coefficient of variation for each experimental group were determined. The activity of AhR receptor with various concentrations of the test compounds was quantitatively determined using a ratio of Ave RLU^Test Cmpd of various concentrations of the test compounds in the experimental group to Ave RLU^Vehicle of the blank control group, and fold activation and EC50 were determined.
For data processing method, refer to J. Biomol.

Q: With `COC(=O)c1nsc(C(=O)c2c[nH]c3ccc(F)cc23)n1` [Compound 13] as the compound, how does the EC50 read?
A: 1 to 10 µM

Q: `CC(C)c1ncc(C(=O)c2c[nH]c3ccccc23)s1` [Compound 10] was tested. Which EC50 (AhR receptor reporter gene cells, 24 h incubation at 37° C., luciferase readout, read-out: EC50) did it give?
A: 10 to 100 µM

Q: For `COC(=O)c1nsc(C(=O)c2c[nH]c3ccc(OC)cc23)n1` [Compound 14], which EC50 is on record?
A: 1 to 10 µM
